system: Mycobacterium tuberculosis; assay: Inhibition of Mycobacterium tuberculosis chorismate mutase expressed in Escherichia coli BL21 (DE3) assessed as conversion of chorismate to prephenate at 50 uM after 5 mins

Structure (SMILES) | inhibition [%]
Cc1ccc(S(=O)(=O)Nc2ccc(Cl)cc2-c2cc3cc(Cl)ccc3n2S(=O)(=O)c2ccc(C)cc2)cc1 | 10
CS(=O)(=O)Nc1ccc(C(F)(F)F)cc1-c1cc2cc(C(F)(F)F)ccc2n1S(C)(=O)=O | 25
Cc1ccc(NS(C)(=O)=O)c(-c2cc3cc(C)ccc3n2S(C)(=O)=O)c1 | 42
CS(=O)(=O)Nc1ccccc1-c1cc2ccccc2n1S(C)(=O)=O | 40
CS(=O)(=O)Nc1ccc(F)cc1-c1cc2cc(F)ccc2n1S(C)(=O)=O | 69
CC(=O)c1ccc(NS(C)(=O)=O)c(-c2cc3cc(C(C)=O)ccc3n2S(C)(=O)=O)c1 | 30
CS(=O)(=O)Nc1ccc([N+](=O)[O-])cc1-c1cc2cc([N+](=O)[O-])ccc2n1S(C)(=O)=O | 15
Cc1ccc(S(=O)(=O)Nc2ccc(F)cc2-c2cc3cc(F)ccc3n2S(=O)(=O)c2ccc(C)cc2)cc1 | 15
COc1ccc(NS(C)(=O)=O)c(-c2cc3cc(OC)ccc3n2S(C)(=O)=O)c1 | 50
Cc1ccc(S(=O)(=O)Nc2ccc(C)cc2-c2cc3cc(C)ccc3n2S(=O)(=O)c2ccc(C)cc2)cc1 | 15
Cc1ccc(S(=O)(=O)Nc2ccccc2-c2cc3ccccc3n2S(=O)(=O)c2ccc(C)cc2)cc1 | 12
CS(=O)(=O)Nc1ccc(Cl)cc1-c1cc2cc(Cl)ccc2n1S(C)(=O)=O | 45
CS(=O)(=O)Nc1ccc(C#N)cc1-c1cc2cc(C#N)ccc2n1S(C)(=O)=O | 20
Cc1ccc(S(=O)(=O)Nc2ccc(C(F)(F)F)cc2-c2cc3cc(C(F)(F)F)ccc3n2S(=O)(=O)c2ccc(C)cc2)cc1 | 12

system: not listed separately; assay: (§1) Inhibition of Mycobacterium tuberculosis chorismate mutase expressed in Escherichia coli BL21 (DE3) assessed as conversion of chorismate to prephenate after 5 mins

Structure (SMILES) | IC50 [µM]
CS(=O)(=O)Nc1ccc(F)cc1-c1cc2cc(F)ccc2n1S(C)(=O)=O | 17
COc1ccc(CCNc2c([N+](=O)[O-])cc(C(=O)O)cc2S(N)(=O)=O)cc1OC | < 10

system: Mycobacterium tuberculosis; assay: as §1

Structure (SMILES) | inhibition
CS(=O)(=O)Nc1ccc(F)cc1-c1cc2cc(F)ccc2n1S(C)(=O)=O | Dose-dependent effect

— ChEMBL document CHEMBL3217686, “A new route to indoles via in situ desilylationSonogashira strategy: identification of novel small molecules as potential anti-tuberculosis agents” (Medchemcomm, 2011)
